Experimental data published in patent US20240251792A1, “WEED CONTROL METHOD” (SYNGENTA CROP PROTECTION AG, priority 2021, published 2024).
Like-named read-outs stand apart in the source and are kept apart here.

Key:
Format in all cases: in vivo
IPOHE = assay: Pre-emergence biological efficacy (Table 3); settings: 1000 g/ha, after 13 days; for pest or weed control at 1000 g/ha: Ipomoea hederacea, 312 h, read-out: evaluation (100=total damage to plant; 0=no damage to plant)
Protocol: (§1) Seeds of weeds and/or crops were sown in standard soil in pots. After cultivation for one day under controlled conditions in a glasshouse (at 24/19° C., day/night; 16 hours light), the plants were sprayed with an aqueous spray solution derived from the formulation of the technical active ingredient in a small amount of acetone and a special solvent and emulsifier mixture referred to as AMA (11.12% Emulsogen EL360 TM+44.44% N-methylpyrrolidone+44.44% Dowanol DPM glycol ether), to create a 50 g/l solution which was then diluted using 0.2% Genapol X080 as diluent to give the desired final dose of test compound.
(§2) The test plants were then grown under controlled conditions in the glasshouse (at 24/18° C., day/night; 15 hours light; 50% humidity) and watered twice daily. After 13 days the test was evaluated (100=total damage to plant; 0=no damage to plant).

ECHCG = assay: Pre-emergence biological efficacy (Table 3); settings: 1000 g/ha, after 13 days; for pest or weed control at 1000 g/ha: Echinochloa crus-galli, 312 h, read-out: evaluation (100=total damage to plant; 0=no damage to plant)
Protocol: as §1, §2

ABUTH = assay: Pre-emergence biological efficacy (Table 3); settings: after 13 days; for pest or weed control at 1000 g/ha: Abutilon theophrasti, 312 h, read-out: evaluation (100=total damage to plant; 0=no damage to plant)
Protocol: as §1, §2

STEME = assay: Pre-emergence biological efficacy (Table 3); settings: after 13 days; for pest or weed control at 1000 g/ha: 312 h, read-out: evaluation (100=total damage to plant; 0=no damage to plant)
Protocol: as §1, §2

ZEAMX = assay: Pre-emergence biological efficacy (Table 3); settings: 1000 g/ha, after 13 days; for plant injury at 1000 g/ha: 312 h, read-out: evaluation (100=total damage to plant; 0=no damage to plant)
Protocol: as §1, §2

AMARE = assay: Pre-emergence biological efficacy (Table 3); settings: 1000 g/ha, after 13 days; for pest or weed control at 1000 g/ha: Amaranthus retroflexus, 312 h, read-out: evaluation (100=total damage to plant; 0=no damage to plant)
Protocol: as §1, §2

weeds and/or crops = assay: Post-emergence biological efficacy (Table 4); settings: 1000 g/ha, evaluated after 13 days; for pest or weed control at 1000 g/ha: 312 h
Protocol: as §1, with “14 days” for “one day”, “F50” for “AMA”
as §2

[1] = STEME, read-out: damage to plant STEME (100=total damage; 0=no damage)
[2] = ZEAMX, read-out: damage to plant ZEAMX (100=total damage; 0=no damage)
[3] = Amaranthus retroflexus, AMARE, read-out: damage to plant AMARE (100=total damage; 0=no damage)
[4] = Echinochloa crus-galli, ECHCG, read-out: damage to plant ECHCG (100=total damage; 0=no damage)
[5] = Ipomoea hederacea, IPOHE, read-out: damage to plant IPOHE (100=total damage; 0=no damage)
[6] = Abutilon theophrasti, ABUTH, read-out: damage to plant ABUTH (100=total damage; 0=no damage)

| Structure (SMILES) | pest or weed control at 1000 g/ha (IPOHE) [%] | pest or weed control at 1000 g/ha (ECHCG) [%] | pest or weed control at 1000 g/ha (ABUTH) [%] | pest or weed control at 1000 g/ha (STEME) [%] | plant injury at 1000 g/ha (ZEAMX) [%] | pest or weed control at 1000 g/ha (AMARE) [%] | pest or weed control at 1000 g/ha (weeds and/or crops; [1]) [%] | pest or weed control at 1000 g/ha (weeds and/or crops; [2]) [%] | pest or weed control at 1000 g/ha (weeds and/or crops; [3]) [%] | pest or weed control at 1000 g/ha (weeds and/or crops; [4]) [%] | pest or weed control at 1000 g/ha (weeds and/or crops; [5]) [%] | pest or weed control at 1000 g/ha (weeds and/or crops; [6]) [%] | further results |
| --- | --- | --- | --- | --- | --- | --- | --- | --- | --- | --- | --- | --- | --- |
| Cc1noc2cccc(C(F)(F)C(=O)O)c12 [Compound 1-391, 2,2-Difluoro-2-(3-methyl-1,2-benzoxazol-4-yl)acetic acid] | 60 | 40 | 40 | 20 | 10 | 70 | 50 | 10 | 70 | 30 | 80 | – | – |
| N.Nc1ccc(C(F)(F)C(=O)O)c(Cl)c1Cl [Compound 7-75, Ammonium;2-(4-amino-2,3-dichloro-phenyl)-2,2-difluoro-acetate] | – | – | – | – | – | – | – | – | – | – | – | – | evaluation (100=total damage to plant; 0=no damage to plant) (IPOHE): 20; evaluation (100=total damage to plant; 0=no damage to plant) (ECHCG): 30; evaluation (100=total damage to plant; 0=no damage to plant) (ABUTH; 1000 g/ha): 70; evaluation (100=total damage to plant; 0=no damage to plant) (STEME; 1000 g/ha): 70; evaluation (100=total damage to plant; 0=no damage to plant) (ZEAMX): 0; evaluation (100=total damage to plant; 0=no damage to plant) (AMARE): 70; damage to plant AMARE (100=total damage; 0=no damage) (weeds and/or crops; AMARE): 70; damage to plant ECHCG (100=total damage; 0=no damage) (weeds and/or crops; ECHCG): 60; damage to plant IPOHE (100=total damage; 0=no damage) (weeds and/or crops; IPOHE): 20; damage to plant STEME (100=total damage; 0=no damage) (weeds and/or crops; STEME): 90; damage to plant ZEAMX (100=total damage; 0=no damage) (weeds and/or crops; ZEAMX): 10 |
| O=C(O)C(F)(F)c1c(Cl)ccc2cccnc12 [Compound 1-407, 2-(7-Chloroquinolin-8-yl)-2,2-difluoroacetic acid] | 60 | 50 | 70 | 10 | 40 | 60 | 30 | 0 | 70 | 0 | 80 | – | – |
| Nc1ccc(Cl)c(C(F)(F)C(=O)O)c1 [Compound 1-63, 2-(5-Amino-2-chloro-phenyl)-2,2-difluoro-acetic acid] | 0 | 0 | 0 | 0 | 0 | 0 | 0 | 0 | 20 | 10 | 20 | 10 | – |
| Cc1ccc2onc(C)c2c1C(F)(F)C(=O)O [Compound 1-396, 2-(3,5-dimethylbenzo[d]isoxazol-4-yl)-2,2-difluoroacetic acid] | 0 | 0 | 0 | 0 | 30 | 0 | 0 | 10 | 10 | 0 | 60 | – | – |
| N#Cc1c(Cl)cccc1C(F)(F)C(=O)O [Compound 1-262, 2-(3-Chloro-2-cyano-phenyl)-2,2-difluoro-acetic acid] | 90 | 0 | 90 | 100 | 40 | 90 | 100 | 20 | 90 | 0 | 70 | 80 | – |
